This passage reports IC50 results from patent US10160748B2 (AbbVie Inc., priority 2015, dated 2018).

The assay concerns the target TNFα trimer (Homo sapiens, UniProt P01375). Kind of assay: TNFα FP Competitive Binding Assay. The settings on record: FP binding assay; 20 nM TNFα trimer, 1 nM OregonGreen488 probe; read-out: TNF IC50. An outline of the steps: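 Compounds in 12-point 1:3 series, final top 100 μM (2.0% DMSO) or 338 μM (3.4% DMSO), displace 1 nM fluorescent probe from 20 nM TNFα trimer. After 18-24 h incubation plus 1 h rt equilibration, background-subtracted polarization measured and curves fitted with variable slope.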

TNFα trimer, sequence (P01375 77-233 limits assumed): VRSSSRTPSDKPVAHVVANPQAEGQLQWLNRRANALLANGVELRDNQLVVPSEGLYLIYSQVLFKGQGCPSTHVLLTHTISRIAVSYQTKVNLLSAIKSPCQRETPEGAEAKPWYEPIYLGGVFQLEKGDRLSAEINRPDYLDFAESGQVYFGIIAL

Turning to `CC(=O)N1CC[C@H](Nc2ncc(-c3ccc4c(=O)n(C)n(Cc5ccccc5OC(F)F)c4c3)cn2)C1` [Example 3, (S)-6-(2-((1-Acetylpyrrolidin-3-yl)amino)pyrimidin-5-yl)-1-(2-(difluoromethoxy)benzyl)-2-methyl-1H-indazol-3(2H)-one], the IC50 is 1000 to 10000 nM.

As to `CC(=O)N1CCN(c2ncc(-c3ccc4c(=O)n(C)n(Cc5cc(C)ccc5OC(F)F)c4c3)cn2)C[C@@H]1C` (single isomer, unassigned) [Example 55], the concentration for half-maximal inhibition (IC50) is less than 1000 nM.

For `Cn1c(=O)c2ccc(-c3cc(N4CCOCC4)ncc3Cl)cc2n1Cc1cccc(F)c1` [Example 3.1], the half-maximal inhibitory concentration (IC50) was greater than 10000 nM.

On to `Cn1c(=O)c2ccc(-c3cnc(C(C)(C)O)nc3)cc2n1Cc1cc([C@H]2CC[C@@H](C#N)C2)ccc1OC(F)F` (racemic) [Example 96, rac-(R,3S)-3-(4-(Difluoromethoxy)-3-((6-(2-(2-hydroxypropan-2-yl)pyrimidin-5-yl)-2-methyl-3-oxo-2,3-dihydro-1H-indazol-1-yl)methyl)phenyl)cyclopentane-1-carbonitrile], for which the IC50 was in the range of 1000 to 10000 nM.

For `Cc1cccc([C@@H](C)n2c3cc(-c4cnc(N5CCN(C(=O)CO)[C@H](C)C5)nc4)ccc3c(=O)n2C)c1` (single isomer, unassigned) [Example 118], the 50% inhibitory concentration (IC50) lay in the range of 1000 to 10000 nM.

For `CC(C)[C@H](N)C(=O)OCC(=O)N1CCN(c2ncc(-c3ccc4c(=O)n(C)n(Cc5ccccc5OC(F)F)c4c3)cn2)C[C@H]1C` [Example 14.12], the IC50 was less than 1000 nM.

For the molecule `O=c1c2ccc(-c3cnc(N4CCOCC4)nc3)cc2n(Cc2ccccc2OC(F)F)n1C1CC1` [Example 11, 2-Cyclopropyl-1-(2-(difluoromethoxy)benzyl)-6-(2-morpholinopyrimidin-5-yl)-1H-indazol-3(2H)-one], the IC50 lay within 1000 to 10000 nM.

As for `Cn1c(=O)c2ccc(-c3cnc(N4CCOCC4)nc3)cc2n1-c1cc(Cl)ccc1Cl` [Example 12.1], the concentration for half-maximal inhibition (IC50) is 1000 to 10000 nM.

As for `Cn1c(=O)c2ccc(-c3cnc(N4CCOCC4)nc3)cc2n1Cc1cnccc1Cl` [Example 1.17], the IC50 is greater than 10000 nM.

Take `Cn1c(=O)c2ccc(-c3cnc(N4CCNCC4)nc3)cc2n1Cc1cc(Cl)ccc1Cl` [Example 14.2]: the IC50 is 1000 to 10000 nM.

For the molecule `Cn1c(=O)c2ccc(-c3cnc(N4CCN(C(N)=O)CC4)nc3)cc2n1Cc1ccccc1OC(F)F` [Example 2.1], the IC50 is less than 1000 nM.

As for `Cc1ccc(OC(F)F)c(Cn2c3cc(-c4cnc(C(C)(C)O)nc4C)ccc3c(=O)n2C)c1` [Example 22.5], the IC50 is less than 1000 nM.

Regarding `CC(c1ccccc1)n1c2cc(-c3cnc(N4CCN(C(=O)CO)[C@H](C)C4)nc3)ccc2c(=O)n1C` (stereo partly drawn) [Example 28.2], the IC50 is less than 1000 nM.

In the case of `CC(=O)N1CCN(c2ncc(-c3ccc4c(=O)n(C)n(Cc5cc(Cc6cn[nH]c6)ccc5OC(F)F)c4c3)cn2)C[C@H]1C` [Example 110, (R)-1-(5-((1H-Pyrazol-4-yl)methyl)-2-(difluoromethoxy)benzyl)-6-(2-(4-acetyl-3-methylpiperazin-1-yl)pyrimidin-5-yl)-2-methyl-1H-indazol-3(2H)-one], the half-maximal inhibitory concentration (IC50) was less than 1000 nM.

Regarding `Cc1ccc(OC(F)F)c(Cn2c3cc(-c4ccc(C(C)(C)N)nc4)c(F)cc3c(=O)n2C)c1` [Example 89, 6-(6-(2-Aminopropan-2-yl)pyridin-3-yl)-1-(2-(difluoromethoxy)-5-methylbenzyl)-5-fluoro-2-methyl-1H-indazol-3(2H)-one 2,2,2-trifluoroacetate], the IC50 is less than 1000 nM.

For `Cc1ccc(OC(F)F)c(Cn2c3cc(-c4cnc(N5CCN6C(=O)NC[C@H]6C5)nc4)ccc3c(=O)n2C)c1` [Example 15.1], the IC50 is less than 1000 nM.

`C[C@@H]1CN(c2ncc(-c3ccc4c(=O)n(C)n([C@H](C)c5ccccc5F)c4c3)cn2)CCN1C(=O)CO` (single isomer, unassigned) [Example 86]: the IC50 lay within 1000 to 10000 nM.

As to `CC(=O)N1CCN(c2ncc(-c3ccc4c(=O)n(C)n(Cc5cc(C)ccc5OC(F)F)c4c3)cn2)C[C@H]1C` (single isomer, unassigned) [Example 54], the IC50 is less than 1000 nM.
